Laboratory results from US10683293B2, “Optionally fused heterocyclyl-substituted derivatives of pyrimidine useful for the treatment of inflammatory, metabolic, oncologic and autoimmune diseases” (NUEVOLUTION A/S, priority 2014, dated 2020).

The compounds below were run against T1, human RORγt (Ligand Binding Domain) (Homo sapiens, UniProt P51449) (assay: Fluorescence Polarization (FP) Assay). Conditions: 100 nM human RORγt LBD, 25 nM TAMRA probe, values are activity range bounds.
T1 construct: purchased Crelux (Planegg, Germany) batch no PC5032-1
T1 sequence (P51449 269-508 limits assumed): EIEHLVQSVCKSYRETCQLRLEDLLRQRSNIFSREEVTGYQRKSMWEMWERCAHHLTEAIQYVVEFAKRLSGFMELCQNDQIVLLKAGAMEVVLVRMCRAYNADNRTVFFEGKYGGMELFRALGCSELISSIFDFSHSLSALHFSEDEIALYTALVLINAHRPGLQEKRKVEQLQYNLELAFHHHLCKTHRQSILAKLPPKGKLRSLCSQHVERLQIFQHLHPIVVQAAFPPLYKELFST
Protocol: (§1) The activity of the compounds was evaluated using a Fluorescence Polarization (FP) Assay and, RORγ Reporter assay (also referred to as Gal4 assay). The FP assay is an in vitro assay monitoring binding within the ligand binding pocket. The RORγ and the Th17 assays (another suitable assay) are both cell-based assays monitoring functional activity of the compound assayed.
Fluorescence Polarization (FP) Assay
The total volume was 25 μl, in a black Perkin Elmer OptiPlate. As negative control, 1 μl DMSO was used. […] The probe is a fluorescently labeled (TAMRA) RORγt ligand identified by Nuevolution with a total molecular weight of 910 g/mole as shown in Graph A in FIG. 1.

IC50 [nM] | SMILES
< 1000 | Fc1c(NCc2ccsc2)ncnc1N(Cc1ccc(C(F)(F)F)cc1)C1CC1 [Example A21, N6-cyclopropyl-5-fluoro-N4-(3-thienylmethyl)-N6-[[4-(trifluoromethyl)phenyl]methyl] pyrimidine-4,6-diamine]
< 500 | OCCC1(CNc2ncnc(N(Cc3ccc(C(F)(F)F)cc3)C3CC3)c2F)CCOCC1 [Example A22, 2-[4-[[[6-[cyclopropyl-[[4-(trifluoromethyl)phenyl]methyl]amino]-5-fluoro-pyrimidin-4-yl]amino]methyl]tetrahydropyran-4-yl]ethanol]
< 500 | Fc1c(NCc2ccc(-c3nnn[nH]3)cc2)ncnc1N(Cc1ccc(C(F)(F)F)cc1)C1CC1 [Example A23, N6-cyclopropyl-5-fluoro-N4-[[4-(1H-tetrazol-5-yl)phenyl]methyl]-N6-[[4-(trifluoromethyl)phenyl]methyl] pyrimidine-4,6-diamine]
< 500 | COc1ccc(CN(C)c2ncnc(N(Cc3ccc(C(F)(F)F)cc3)C3CC3)c2F)cn1 [Example A24, N6-cyclopropyl-5-fluoro-N4-[(6-methoxy-3-pyridyl)methyl]-N4-methyl-N6-[[4-(trifluoromethyl)phenyl]methyl] pyrimidine-4,6-diamine]
< 500 | COc1ccc(CNc2ncnc(N(Cc3ccc(C(F)(F)F)cc3)C3CC3)c2F)cn1 [Example A25, N6-cyclopropyl-5-fluoro-N4-[(6-methoxy-3-pyridyl)methyl]-N6-[[4-(trifluoromethyl)phenyl]methyl] pyrimidine-4,6-diamine]
< 500 | OCC1(CNc2ncnc(N(Cc3ccc(C(F)(F)F)cc3)C3CC3)c2F)COC1 [Example A26, [3-[[[6-[cyclopropyl-[[4-(trifluoromethyl)phenyl]methyl]amino]-5-fluoro-pyrimidin-4-yl]amino]methyl]oxetan-3-yl]methanol]
< 1000 | CN(C)C(=O)C1(CNc2ncnc(N(Cc3ccc(C(F)(F)F)cc3)C3CC3)c2F)CCCC1 [Example A27, 1-[[[6-[cyclopropyl-[[4-(trifluoromethyl)phenyl]methyl]amino]-5-fluoro-pyrimidin-4-yl]amino]methyl]-N,N-dimethyl-cyclopentanecarboxamide]
< 1000 | Fc1c(NCC2CCCS2)ncnc1N(Cc1ccc(C(F)(F)F)cc1)C1CC1 (stereo not shown) [Example A28, N6-cyclopropyl-5-fluoro-N4-(tetrahydrothiophen-2-ylmethyl)-N6-[[4-(trifluoromethyl)phenyl]methyl] pyrimidine-4,6-diamine]
< 500 | COC1(CNc2ncnc(N(Cc3ccc(C(F)(F)F)cc3)C3CC3)c2F)CCOCC1 [Example A29, N6-cyclopropyl-5-fluoro-N4-[(4-methoxytetrahydropyran-4-yl)methyl]-N6-[[4-(trifluoromethyl)phenyl]methyl] pyrimidine-4,6-diamine]
< 500 | OC1(CNc2ncnc(N(Cc3ccc(C(F)(F)F)cc3)C3CC3)c2F)CCSCC1 [Example A30, 4-[[[6-[cyclopropyl-[[4-(trifluoromethyl)phenyl]methyl]amino]-5-fluoro-pyrimidin-4-yl]amino]methyl]tetrahydrothiopyran-4-ol]
< 500 | CS(=O)(=O)CC1(CNc2ncnc(N(Cc3ccc(C(F)(F)F)cc3)C3CC3)c2F)CCOCC1 [Example A31, N6-cyclopropyl-5-fluoro-N4-[[4-(methylsulfonylmethyl)tetrahydro-pyran-4-yl]methyl]-N6-[[4-(trifluoromethyl)phenyl]methyl] pyrimidine-4,6-diamine]
< 500 | CC1CCC(CNc2ncnc(N(Cc3ccc(C(F)(F)F)cc3)C3CC3)c2F)CC1 (stereo not shown) [Example A32, N6-cyclopropyl-5-fluoro-N4-[(4-methylcyclohexyl)methyl]-N6-[[4-(trifluoromethyl)phenyl]methyl] pyrimidine-4,6-diamine]
< 500 | CC(C)C1CCC(CNc2ncnc(N(Cc3ccc(C(F)(F)F)cc3)C3CC3)c2F)CC1 (stereo not shown) [Example A33, N6-cyclopropyl-5-fluoro-N4-[(4-isopropylcyclohexyl)methyl]-N6-[[4-(trifluoromethyl)phenyl]methyl] pyrimidine-4,6-diamine]
< 500 | O=S1(=O)CCC(CNc2ncnc(N(Cc3ccc(C(F)(F)F)cc3)C3CC3)c2F)CC1 [Example A34, N6-cyclopropyl-N4-[(1,1-dioxothian-4-yl)methyl]-5-fluoro-N6-[[4-(trifluoromethyl)phenyl]methyl] pyrimidine-4,6-diamine]
< 500 | O=S1(=O)CCOC(CNc2ncnc(N(Cc3ccc(C(F)(F)F)cc3)C3CC3)c2F)C1 (stereo not shown) [Example A35, N6-cyclopropyl-N4-[(4,4-dioxo-1,4-oxathian-2-yl)methyl]-5-fluoro-N6-[[4-(trifluoromethyl)phenyl]methyl] pyrimidine-4,6-diamine]
< 500 | O=C(O)CC1CCC(CNc2ncnc(N(Cc3ccc(C(F)(F)F)cc3)C3CC3)c2F)CC1 (stereo not shown) [Example A36, 2-[4-[[[6-[cyclopropyl-[[4-(trifluoromethyl)phenyl]methyl]amino]-5-fluoro-pyrimidin-4-yl]amino]methyl]cyclohexyl]acetic acid]
< 500 | CS(=O)(=O)Cc1ccc(CNc2ncnc(N(Cc3ccc(C(F)(F)F)cc3)C3CC3)c2F)cc1 [Example A37, N4-cyclopropyl-5-fluoro-N6-[[4-(methylsulfonylmethyl)phenyl]methyl]-N4-[[4-(trifluoromethyl)phenyl]methyl] pyrimidine-4,6-diamine]
< 500 | COc1cc(CNc2ncnc(N(Cc3ccc(C(F)(F)F)cc3)C3CC3)c2F)ccn1 [Example A38, N4-cyclopropyl-5-fluoro-N6-[(2-methoxy-4-pyridyl)methyl]-N4-[[4-(trifluoromethyl)phenyl]methyl] pyrimidine-4,6-diamine]
< 500 | N#Cc1ccc(CNc2ncnc(N(Cc3ccc(C(F)(F)F)cc3)C3CC3)c2F)cc1 [Example A39, 4-[[[6-[cyclopropyl-[[4-(trifluoromethyl)phenyl]methyl]amino]-5-fluoro-pyrimidin-4-yl]amino]methyl]benzonitrile]
< 1000 | Fc1c(NCc2ccccc2)ncnc1N(Cc1ccc(C(F)(F)F)cc1)C1CC1 [Example A40, N6-benzyl-N4-cyclopropyl-5-fluoro-N4-[[4-(trifluoromethyl)phenyl]methyl] pyrimidine-4,6-diamine]

The compounds below were run against T2, ligand binding domain of human RORγ (Homo sapiens, UniProt P51449) (assay: RORγ Reporter Assay (Gal4)). Conditions: HEK-293T, 1 μM test compound, HEK293t RORγ reporter cells, 24 hour; read-out: Gal4 activity range @ 1 μM (% inhibition).
T2 construct: host or cells: HEK293t
T2 sequence (P51449 269-508 limits assumed): T1 sequence (P51449 269-508 limits assumed)
Assay type: cell-based
Protocol: as §1
RORγ Reporter Assay (Gal4)
Cell-based RORγ functional assays were performed using a commercially available assay product (INDIGO Biosciences, State College, Pa., USA; product # IB04001). The RORγ reporter cells are HEK293t cells transfected with one vector that provides high level constitutive expression of a hybrid protein comprised of the yeast Gal4-DNA binding domain fused to the ligand binding domain of human RORγ, and a second vector comprising the firefly luciferase cDNA functionally linked to the upstream activation sequence (UAS) of yeast Gal4. A suspension of RORγ Reporter Cells was prepared using the protocol and culture medium provided in the kit product, and 100 μl of the Reporter Cell suspension was then dispensed into wells of a white, collagen-treated, 96-well assay plate. Concentrated stocks of test compounds were prepared in DMSO, then further diluted using media provided in the kit to generate ‘2×-concentration’ treatment media. 100 μl of medium for each respective treatment concentration dispensed into triplicate assay wells, thereby combining with the reporter cells. All media formulations contained 10% charcoal stripped Fetal Bovine Serum, but are otherwise proprietary to INDIGO Biosciences. Final treatment concentrations for each test compound were 1,000 nM and 100 nM, each with 0.1% residual DMSO. Separate control treatments were media supplemented with vehicle only (0.1% DMSO) to determine the constitutive level of RORγ activity in the reporter cells, and the reference inverse-agonist ursolic acid (f.c. 6,000 nM to 8.2 nM in 3-fold decrements) to establish a positive control inverse-agonist dose response. Assay plates were placed in a 37° C., 5% CO2, 85% humidity incubator for 24 hour. Treatment media were then discarded, 100 μl of luciferase detection reagent was added to each well, and relative light units (RLUs) were quantified from each assay well using a plate reading luminometer. Values of average RLU+/−standard deviation were computed for all treatment sets, followed by the calculations of fold-reduction: [Average RLUVehicle/Average RLUTest Cmpd]. Percent-reduction of RORγ activity in response to respective test compound treatments was calculated: [100*(1−[Ave RLUTest Cmpd/Ave RLUVehicle)] where the theoretical minimum reduction (0% reduction) derives from Vehicle treatment only, no treatment compound. In some aspects it may be of interest to provide compounds with selective modulation of RORγ for example compounds that are selective to RORγ over RORα, compounds that are selective for RORγ versus RORPβ, and compounds that are selective for RORγ versus BOTH RORα and RORPβ. It may also be of interest to provide compounds that are selective for RORγ versus further nuclear hormone receptors such as CAR1, FXR, GR, LXRα, LXRβ, PPARα, PXR, RARα, RXRα, TRα, VDR. It is apparent to those skilled in the art that these nuclear hormone receptors are merely examples, and that selectivity against other nuclear receptors may also be of interest. It may for example be of interest to provide compounds that modulate RORγ and one or more further nuclear hormone receptors, as well as compounds that modulate both RORγ and RORα, or RORγ and RORβ. It may also be of interest to provide compounds that modulate RORγ and BOTH RORα and RORP, as well as compounds that modulate both RORγ and one or more further nuclear hormone receptors such as CAR1, FXR, GR, LXRα, LXRβ, PPARα, PXR, RARα, RXRα, TRα, VDR. It is apparent to those skilled in the art that these nuclear hormone receptors are merely examples, and that modulation of even other nuclear receptors may also be of interest. […]

inhibition at 1 µM [%] | SMILES
> 80 | CS(=O)(=O)CC1(CNc2ncnc(N(Cc3ccc(C(F)(F)F)cc3)C3CC3)c2F)CCOCC1 [Example A49, N6-cyclopropyl-5-fluoro-N4-[[4-(methylsulfonylmethyl)tetrahydro-pyran-4-yl]methyl]-N6-[[4-(trifluoromethyl)phenyl]methyl] pyrimidine-4,6-diamine]

Same assay, conditions: RORγ Reporter Assay (Gal4), HEK293t reporter cells, compound at 0.1 μM; values are activity range bounds

Gal4 activity range @ 0.1 μM (% inhibition) | SMILES
>80 | CS(=O)(=O)CC1(CNc2ncnc(N(Cc3ccc(C(F)(F)F)cc3)C3CC3)c2F)CCOCC1 [Example A49, N6-cyclopropyl-5-fluoro-N4-[[4-(methylsulfonylmethyl)tetrahydro-pyran-4-yl]methyl]-N6-[[4-(trifluoromethyl)phenyl]methyl] pyrimidine-4,6-diamine]
